Measurements published in US20190216829A1, “Anticancer Compositions” (ARAGON PHARMACEUTICALS, INC., priority 2016, published 2019).
In brackets after ≈: the same amount, converted by molar mass.

Test: Solubility of ARN-509 forms in water
Format: physicochemical
Description: Solubility of Form A: 0.01 mg/ml in water.
Solubility of Form B: 0.004 mg/ml in water.

## CNC(=O)c1ccc(N2C(=S)N(c3cnc(C#N)c(C(F)(F)F)c3)C(=O)C23CCC3)cc1F [Form B, 4-[7-(6-cyano-5-trifluoromethylpyridin-3-yl)-8-oxo-6-thioxo-5,7-diazaspiro[3.4]oct-5-yl]-2-fluoro-N-methylbenzamide]
  Solubility: 4 µg/mL (≈ 8.38 µM)

## CNC(=O)c1ccc(N2C(=S)N(c3cnc(C#N)c(C(F)(F)F)c3)C(=O)C23CCC3)cc1F [Form A, 4-[7-(6-cyano-5-trifluoromethylpyridin-3-yl)-8-oxo-6-thioxo-5,7-diazaspiro[3.4]oct-5-yl]-2-fluoro-N-methylbenzamide]
  Solubility: 10 µg/mL (≈ 20.9 µM)
